Reference: patent US20230128402A1 (The Trustees of Princeton University, priority 2020, published 2023)

Molecular target: T1, mALDH1a3 (Mus musculus, UniProt Q9JHW9)
T1 construct: made in house; host or cells: E. coli BL21-DE3, pET-Aldh1a3
T1 sequence (Q9JHW9 1-512): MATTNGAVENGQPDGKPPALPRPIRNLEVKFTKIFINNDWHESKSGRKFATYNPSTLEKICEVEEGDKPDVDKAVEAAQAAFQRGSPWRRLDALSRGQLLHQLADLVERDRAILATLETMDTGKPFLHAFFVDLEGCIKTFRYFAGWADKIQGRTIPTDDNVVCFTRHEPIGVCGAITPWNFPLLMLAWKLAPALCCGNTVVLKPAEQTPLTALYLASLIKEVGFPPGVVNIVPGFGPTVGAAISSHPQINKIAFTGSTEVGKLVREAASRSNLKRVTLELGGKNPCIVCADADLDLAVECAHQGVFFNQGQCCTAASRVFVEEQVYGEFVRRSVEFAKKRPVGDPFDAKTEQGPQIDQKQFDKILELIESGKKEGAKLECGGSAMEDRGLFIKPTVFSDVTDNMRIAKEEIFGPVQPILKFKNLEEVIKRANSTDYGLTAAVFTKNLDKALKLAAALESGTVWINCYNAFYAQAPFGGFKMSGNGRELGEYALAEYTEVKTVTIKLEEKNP
Test: Aldh1a3 enzyme inhibition assay, recombinant mALDH1a3
Format: biochemical
Conditions: resorufin fluorescence, 20° C.
Source text: (§1) Recombinant enzyme and inhibitor added immediately before assay. Reaction rate measured by resorufin fluorescence.

Row | SMILES | IC50
1 | CC1(C)Cc2cc(Nc3ncc4ccccc4n3)ccc2NC1=O [Compound 93, 3,3-dimethyl-6-(quinazolin-2-ylamino)-1,4-dihydroquinolin-2-one] | 250 to 1000 nM
2 | Cc1ccc2ccc(Nc3ccc4c(c3)CCC(=O)N4)nc2c1 [Compound 91, 6-[(7-methyl-2-quinolyl)amino]-3,4-dihydro-1H-quinolin-2-one] | 1000 to 5000 nM
3 | COCc1cnccc1C(=O)Nc1ccc2c(c1)CCC(=O)N2 [Compound 57, 3-(methoxymethyl)-N-(2-oxo-3,4-dihydro-1H-quinolin-6-yl)pyridine 4 carboxamide] | > 5000 nM
4 | CC1(C)Cc2cc(Nc3ccc(Cl)c(Cl)n3)ccc2NC1=O [Compound 97, 6-[(5,6-dichloro-2-pyridyl)amino]-3,3-dimethyl-1,4-dihydroquinolin-2-one] | > 5000 nM
5 | CCc1cnccc1C(=O)Nc1cc2c(cc1F)NC(=O)CC2(C)C [Compound 40] | 250 to 1000 nM
6 | CCc1cnccc1C(=O)Nc1ccc2c(c1)CC(C)(CC)C(=O)N2 (centres unmarked) [Compound 62, 3-ethyl-N-(3-ethyl-3-methyl-2-oxo-1,4-dihydroquinolin-6-yl)pyridine-4-carboxamide] | > 5000 nM
7 | CC1(C)Cc2cc(Nc3ccc4ccccc4n3)ccc2NC1=O [Compound 46, 3,3-dimethyl-6-(2-quinolylamino)-1,4-dihydroquinolin-2-one] | 1000 to 5000 nM
8 | CCc1cnccc1C(=O)Nc1cc2c(cc1F)NC(=O)C(C)(C)C2 [Compound 38] | 1000 to 5000 nM
9 | O=C1CCc2cc(Nc3ccc4ccccc4n3)ccc2N1 [Compound 35, 6-(2-quinolylamino)-3,4-dihydro-1H-quinolin-2-one] | < 100 nM
10 | CCc1cnccc1C(=O)Nc1ccc2c(c1)CN(C)C(=O)N2 [Compound 20, 3-ethyl-N-(3-methyl-2-oxo-1,4-dihydroquinazolin-6-yl)pyridine-4-carboxamide] | > 5000 nM

Now from value to compound:

Row | IC50 | SMILES
11 | > 5000 nM | CN(C)Cc1cnccc1C(=O)Nc1ccc2c(c1)CCC(=O)N2 [Compound 58, 3-[(dimethylamino)methyl]-N-(2-oxo-3,4-dihydro-1H-quinolin-6-yl)pyridine-4-carboxamide]
12 | 1000 to 5000 nM | C=CCc1cnccc1C(=O)Nc1ccc2c(c1)CCC(=O)N2 [Compound 71, 3-allyl-N-(2-oxo-3,4-dihydro-1H-quinolin-6-yl)pyridine-4-carboxamide]
13 | 1000 to 5000 nM | CCc1cnccc1C(=O)Nc1ccc2c(c1)CCC(=O)N2C [Compound 23, 3-ethyl-N-(1-methyl-2-oxo-3,4-dihydroquinolin-6-yl)pyridine-4-carboxamide]
14 | 1000 to 5000 nM | CC(C)c1cnccc1C(=O)Nc1cc2c(cc1F)NC(=O)CC2 [Compound 6]
15 | 1000 to 5000 nM | CCc1cnccc1C(=O)Nc1cc2ccc(=O)[nH]c2cc1F [Compound 39, 3-ethyl-N-(7-fluoro-2-oxo-1H-quinolin-6-yl) pyridine-4-carboxamide]
16 | > 5000 nM | CCc1c[nH]c(=O)cc1C(=O)Nc1ccc2c(c1)CCC(=O)N2 [Compound 51, 5-ethyl-2-oxo-N-(2-oxo-3,4-dihydro-1H-quinolin-6-yl)-1H-pyridine-4-carboxamide]
17 | 250 to 1000 nM | Cc1cc2ccccc2nc1Nc1ccc2c(c1)CC(C)(C)C(=O)N2 [Compound 134]
18 | > 5000 nM | CCc1cnccc1C(=O)NCc1ccc2c(c1)CCC(=O)N2 [Compound 28, 3-ethyl-N-[(2-oxo-3,4-dihydro-1H-quinolin-6-yl)methyl]pyridine-4-carboxamide]
19 | < 100 nM | CC1(C)Cc2cc(Nc3cnc4ccccc4n3)c(F)cc2NC1=O [Compound 109, 7-fluoro-3,3-dimethyl-6-(quinoxalin-2-ylamino)-1,4-dihydroquinolin-2-one]

Molecular target: T2, ALDH1a3 (Homo sapiens, UniProt P47895)
T2 sequence (P47895 1-512): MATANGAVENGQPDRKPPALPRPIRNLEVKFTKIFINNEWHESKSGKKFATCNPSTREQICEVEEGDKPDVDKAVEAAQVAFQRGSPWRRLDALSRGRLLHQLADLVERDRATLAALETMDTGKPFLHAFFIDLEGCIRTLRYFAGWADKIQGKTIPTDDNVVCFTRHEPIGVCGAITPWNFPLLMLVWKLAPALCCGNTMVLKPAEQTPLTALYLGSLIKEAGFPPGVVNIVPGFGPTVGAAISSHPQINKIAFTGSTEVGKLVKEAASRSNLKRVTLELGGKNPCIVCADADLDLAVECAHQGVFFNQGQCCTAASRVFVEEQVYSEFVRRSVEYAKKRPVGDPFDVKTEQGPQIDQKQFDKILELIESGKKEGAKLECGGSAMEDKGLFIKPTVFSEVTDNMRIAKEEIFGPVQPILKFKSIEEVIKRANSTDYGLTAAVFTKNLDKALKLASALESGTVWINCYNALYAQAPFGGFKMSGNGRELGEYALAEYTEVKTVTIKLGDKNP
Test: Aldh1a3 enzyme inhibition assay, recombinant hALDH1a3
Format: biochemical
Design: made in house; host or cells: E. coli BL21-DE3, pET-Aldh1a3
Conditions: resorufin fluorescence, 20° C.
Source text: as §1

Row | SMILES | IC50
20 | CC1(C)Cc2cc(Nc3ncc4ccccc4n3)ccc2NC1=O [Compound 93, 3,3-dimethyl-6-(quinazolin-2-ylamino)-1,4-dihydroquinolin-2-one] | 250 to 1000 nM
21 | Cc1ccc2ccc(Nc3ccc4c(c3)CCC(=O)N4)nc2c1 [Compound 91, 6-[(7-methyl-2-quinolyl)amino]-3,4-dihydro-1H-quinolin-2-one] | > 5000 nM
22 | COCc1cnccc1C(=O)Nc1ccc2c(c1)CCC(=O)N2 [Compound 57, 3-(methoxymethyl)-N-(2-oxo-3,4-dihydro-1H-quinolin-6-yl)pyridine 4 carboxamide] | > 5000 nM
23 | CC1(C)Cc2cc(Nc3ccc(Cl)c(Cl)n3)ccc2NC1=O [Compound 97, 6-[(5,6-dichloro-2-pyridyl)amino]-3,3-dimethyl-1,4-dihydroquinolin-2-one] | 1000 to 5000 nM
24 | CCc1cnccc1C(=O)Nc1cc2c(cc1F)NC(=O)CC2(C)C [Compound 40] | 1000 to 5000 nM
25 | CCc1cnccc1C(=O)Nc1ccc2c(c1)CC(C)(CC)C(=O)N2 (centres unmarked) [Compound 62, 3-ethyl-N-(3-ethyl-3-methyl-2-oxo-1,4-dihydroquinolin-6-yl)pyridine-4-carboxamide] | 1000 to 5000 nM
26 | CC1(C)Cc2cc(Nc3ccc4ccccc4n3)ccc2NC1=O [Compound 46, 3,3-dimethyl-6-(2-quinolylamino)-1,4-dihydroquinolin-2-one] | 1000 to 5000 nM
27 | CCc1cnccc1C(=O)Nc1cc2c(cc1F)NC(=O)C(C)(C)C2 [Compound 38] | 250 to 1000 nM
28 | O=C1CCc2cc(Nc3ccc4ccccc4n3)ccc2N1 [Compound 35, 6-(2-quinolylamino)-3,4-dihydro-1H-quinolin-2-one] | 250 to 1000 nM
29 | CCc1cnccc1C(=O)Nc1ccc2c(c1)CN(C)C(=O)N2 [Compound 20, 3-ethyl-N-(3-methyl-2-oxo-1,4-dihydroquinazolin-6-yl)pyridine-4-carboxamide] | 1000 to 5000 nM

Results, then the compound that gave them:

Row | IC50 | SMILES
30 | > 5000 nM | CN(C)Cc1cnccc1C(=O)Nc1ccc2c(c1)CCC(=O)N2 [Compound 58, 3-[(dimethylamino)methyl]-N-(2-oxo-3,4-dihydro-1H-quinolin-6-yl)pyridine-4-carboxamide]
31 | 250 to 1000 nM | C=CCc1cnccc1C(=O)Nc1ccc2c(c1)CCC(=O)N2 [Compound 71, 3-allyl-N-(2-oxo-3,4-dihydro-1H-quinolin-6-yl)pyridine-4-carboxamide]
32 | > 5000 nM | CCc1cnccc1C(=O)Nc1ccc2c(c1)CCC(=O)N2C [Compound 23, 3-ethyl-N-(1-methyl-2-oxo-3,4-dihydroquinolin-6-yl)pyridine-4-carboxamide]
33 | 1000 to 5000 nM | CC(C)c1cnccc1C(=O)Nc1cc2c(cc1F)NC(=O)CC2 [Compound 6]
34 | 250 to 1000 nM | CCc1cnccc1C(=O)Nc1cc2ccc(=O)[nH]c2cc1F [Compound 39, 3-ethyl-N-(7-fluoro-2-oxo-1H-quinolin-6-yl) pyridine-4-carboxamide]
35 | > 5000 nM | CCc1c[nH]c(=O)cc1C(=O)Nc1ccc2c(c1)CCC(=O)N2 [Compound 51, 5-ethyl-2-oxo-N-(2-oxo-3,4-dihydro-1H-quinolin-6-yl)-1H-pyridine-4-carboxamide]
36 | 250 to 1000 nM | Cc1cc2ccccc2nc1Nc1ccc2c(c1)CC(C)(C)C(=O)N2 [Compound 134]
37 | > 5000 nM | CCc1cnccc1C(=O)NCc1ccc2c(c1)CCC(=O)N2 [Compound 28, 3-ethyl-N-[(2-oxo-3,4-dihydro-1H-quinolin-6-yl)methyl]pyridine-4-carboxamide]
38 | 100 to 250 nM | CC1(C)Cc2cc(Nc3cnc4ccccc4n3)c(F)cc2NC1=O [Compound 109, 7-fluoro-3,3-dimethyl-6-(quinoxalin-2-ylamino)-1,4-dihydroquinolin-2-one]
